Assay results as given in the NIST ThermoML archive (doi:10.1016/j.fluid.2014.07.036).
Numbers after ± are expanded uncertainties.

Test: refractive index (other wavelength) (dimensionless); xn = mol fraction of the nth substance listed
Details: 85 kPa, Liquid, Wavelength=632.8 nm, minimum deviation angle

CCCCCCCC[n+]1ccn(C)c1.F[B-](F)(F)F [1-methyl-3-octylimidazolium tetrafluoroborate] + CCCCCCO
Details | refractive index
289.88 K, x1 = 0.004 | 1.4182 ± 0.0002
289.88 K, x1 = 0.354 | 1.4268 ± 0.0002
290.62 K, x1 = 0.007 | 1.418 ± 0.0002
290.62 K, x1 = 0.346 | 1.4264 ± 0.0002
291.35 K, x1 = 0.01 | 1.4178 ± 0.0002
291.35 K, x1 = 0.338 | 1.426 ± 0.0002
292.06 K, x1 = 0.009 | 1.4175 ± 0.0002
292.06 K, x1 = 0.325 | 1.4255 ± 0.0002
292.78 K, x1 = 0.011 | 1.4173 ± 0.0002
292.78 K, x1 = 0.317 | 1.4251 ± 0.0002
293.48 K, x1 = 0.014 | 1.4171 ± 0.0002
293.48 K, x1 = 0.31 | 1.4247 ± 0.0002
294.37 K, x1 = 1 | 1.4327 ± 0.0003
294.83 K, x1 = 0.018 | 1.4167 ± 0.0002
294.83 K, x1 = 0.289 | 1.4238 ± 0.0002
295.51 K, x1 = 0.02 | 1.4165 ± 0.0002
295.51 K, x1 = 0.282 | 1.4234 ± 0.0002
295.86 K, x1 = 1 | 1.4323 ± 0.0003
296.12 K, x1 = 0.021 | 1.4163 ± 0.0002
296.12 K, x1 = 0.269 | 1.4229 ± 0.0002
296.61 K, x1 = 0.024 | 1.4162 ± 0.0002
296.61 K, x1 = 0.263 | 1.4226 ± 0.0002
297.04 K, x1 = 0.026 | 1.4161 ± 0.0002
297.04 K, x1 = 0.252 | 1.4222 ± 0.0002
297.21 K, x1 = 1 | 1.4319 ± 0.0003
297.39 K, x1 = 0.027 | 1.416 ± 0.0002
297.39 K, x1 = 0.245 | 1.4219 ± 0.0002
297.66 K, x1 = 0.031 | 1.416 ± 0.0002
297.66 K, x1 = 0.24 | 1.4217 ± 0.0002
297.92 K, x1 = 0.034 | 1.416 ± 0.0002
297.92 K, x1 = 0.236 | 1.4215 ± 0.0002
298.17 K, x1 = 0.034 | 1.4159 ± 0.0002
298.17 K, x1 = 0.227 | 1.4212 ± 0.0002
298.38 K, x1 = 0.037 | 1.4159 ± 0.0002
298.38 K, x1 = 0.222 | 1.421 ± 0.0002
298.57 K, x1 = 0.042 | 1.416 ± 0.0002
298.57 K, x1 = 0.221 | 1.4209 ± 0.0002
298.73 K, x1 = 0.044 | 1.416 ± 0.0002
298.73 K, x1 = 0.219 | 1.4208 ± 0.0002
298.88 K, x1 = 0.046 | 1.416 ± 0.0002
298.88 K, x1 = 0.213 | 1.4206 ± 0.0002
298.93 K, x1 = 1 | 1.4313 ± 0.0003
299.01 K, x1 = 0.045 | 1.4159 ± 0.0003
299.01 K, x1 = 0.207 | 1.4204 ± 0.0002
299.12 K, x1 = 0.049 | 1.416 ± 0.0002
299.12 K, x1 = 0.208 | 1.4204 ± 0.0002
299.21 K, x1 = 0.05 | 1.416 ± 0.0002
299.21 K, x1 = 0.202 | 1.4202 ± 0.0002
299.37 K, x1 = 0.056 | 1.4161 ± 0.0002
299.37 K, x1 = 0.196 | 1.42 ± 0.0002
299.44 K, x1 = 0.057 | 1.4161 ± 0.0002
299.44 K, x1 = 0.193 | 1.4199 ± 0.0002
299.5 K, x1 = 0.061 | 1.4162 ± 0.0002
299.5 K, x1 = 0.194 | 1.4199 ± 0.0002
299.55 K, x1 = 0.061 | 1.4162 ± 0.0002
299.55 K, x1 = 0.191 | 1.4198 ± 0.0002
299.6 K, x1 = 0.062 | 1.4162 ± 0.0002
299.6 K, x1 = 0.188 | 1.4197 ± 0.0002
299.66 K, x1 = 0.063 | 1.4162 ± 0.0002
299.66 K, x1 = 0.184 | 1.4196 ± 0.0002
299.7 K, x1 = 0.067 | 1.4163 ± 0.0002
299.7 K, x1 = 0.181 | 1.4195 ± 0.0003
299.74 K, x1 = 0.067 | 1.4163 ± 0.0002
299.74 K, x1 = 0.178 | 1.4194 ± 0.0003
299.79 K, x1 = 0.071 | 1.4164 ± 0.0002
299.79 K, x1 = 0.175 | 1.4193 ± 0.0003
299.83 K, x1 = 0.075 | 1.4165 ± 0.0002
299.83 K, x1 = 0.175 | 1.4193 ± 0.0003
299.86 K, x1 = 0.075 | 1.4165 ± 0.0002
299.86 K, x1 = 0.172 | 1.4192 ± 0.0002
299.9 K, x1 = 0.079 | 1.4166 ± 0.0002
299.9 K, x1 = 0.169 | 1.4191 ± 0.0002
299.95 K, x1 = 0.083 | 1.4167 ± 0.0002
299.95 K, x1 = 0.165 | 1.419 ± 0.0002
299.97 K, x1 = 0.084 | 1.4167 ± 0.0002
299.97 K, x1 = 0.158 | 1.4188 ± 0.0002
299.99 K, x1 = 0.087 | 1.4168 ± 0.0002
299.99 K, x1 = 0.155 | 1.4187 ± 0.0002
300 K, x1 = 0.091 | 1.4169 ± 0.0002
300 K, x1 = 0.155 | 1.4187 ± 0.0002
300.02 K, x1 = 0.091 | 1.4169 ± 0.0002
300.02 K, x1 = 0.148 | 1.4185 ± 0.0002
300.03 K, x1 = 0.095 | 1.417 ± 0.0002
300.03 K, x1 = 0.148 | 1.4185 ± 0.0002
300.04 K, x1 = 0.098 | 1.4171 ± 0.0002
300.04 K, x1 = 0.144 | 1.4184 ± 0.0002
300.05 K, x1 = 0.102 | 1.4172 ± 0.0002
300.05 K, x1 = 0.141 | 1.4183 ± 0.0002
300.06 K, x1 = 0.102 | 1.4172 ± 0.0002
300.06 K, x1 = 0.105 | 1.4173 ± 0.0002
300.06 K, x1 = 0.109 | 1.4174 ± 0.0002
300.06 K, x1 = 0.134 | 1.4181 ± 0.0002
300.06 K, x1 = 0.137 | 1.4182 ± 0.0002
300.06 K, x1 = 0.141 | 1.4183 ± 0.0002
300.67 K, x1 = 1 | 1.4309 ± 0.0003
301.31 K, x1 = 0.1 | 1.4166 ± 0.0002
302.86 K, x1 = 0.1 | 1.416 ± 0.0002
302.95 K, x1 = 1 | 1.4303 ± 0.0003
303.16 K, x1 = 0.2 | 1.4188 ± 0.0002
304.31 K, x1 = 0.2 | 1.4183 ± 0.0002
304.45 K, x1 = 0.1 | 1.4155 ± 0.0002
304.54 K, x1 = 0.4 | 1.4225 ± 0.0002
304.54 K, x1 = 0.497 | 1.4239 ± 0.0002
304.6 K, x1 = 1 | 1.4298 ± 0.0003
305 K, x1 = 0.3 | 1.4202 ± 0.0002
305.51 K, x1 = 0.2 | 1.4179 ± 0.0002
305.52 K, x1 = 0.6 | 1.4251 ± 0.0002
305.52 K, x1 = 0.699 | 1.4263 ± 0.0003
305.69 K, x1 = 0.497 | 1.4236 ± 0.0002
305.73 K, x1 = 0.4 | 1.4221 ± 0.0002
305.93 K, x1 = 0.3 | 1.4199 ± 0.0002
306.12 K, x1 = 0.1 | 1.4148 ± 0.0002
306.24 K, x1 = 1 | 1.4293 ± 0.0003
306.66 K, x1 = 0.2 | 1.4175 ± 0.0002
306.68 K, x1 = 0.699 | 1.426 ± 0.0003
307.04 K, x1 = 0.6 | 1.4247 ± 0.0002
307.07 K, x1 = 0.3 | 1.4196 ± 0.0002
307.1 K, x1 = 0.891 | 1.428 ± 0.0003
307.23 K, x1 = 0.4 | 1.4216 ± 0.0002
307.73 K, x1 = 0.497 | 1.4229 ± 0.0002
307.83 K, x1 = 0.1 | 1.4142 ± 0.0002
307.92 K, x1 = 0.2 | 1.417 ± 0.0002
308.25 K, x1 = 0.699 | 1.4255 ± 0.0003
308.37 K, x1 = 0.798 | 1.4267 ± 0.0003
308.59 K, x1 = 0.6 | 1.4242 ± 0.0002
308.7 K, x1 = 0.3 | 1.419 ± 0.0002
308.74 K, x1 = 0.4 | 1.4211 ± 0.0002
308.75 K, x1 = 0.891 | 1.4276 ± 0.0003
309.13 K, x1 = 0.497 | 1.4225 ± 0.0002
309.18 K, x1 = 0.1 | 1.4137 ± 0.0002
309.19 K, x1 = 0.2 | 1.4165 ± 0.0002
309.66 K, x1 = 0.798 | 1.4264 ± 0.0003
309.72 K, x1 = 0.699 | 1.4251 ± 0.0003
310.02 K, x1 = 0.6 | 1.4237 ± 0.0002
310.19 K, x1 = 0.891 | 1.4272 ± 0.0003
310.59 K, x1 = 0.3 | 1.4184 ± 0.0002
310.6 K, x1 = 0.4 | 1.4204 ± 0.0002
310.63 K, x1 = 0.798 | 1.4261 ± 0.0003
310.77 K, x1 = 0.497 | 1.422 ± 0.0002
311.29 K, x1 = 0.699 | 1.4246 ± 0.0003
311.31 K, x1 = 0.891 | 1.4268 ± 0.0003
311.64 K, x1 = 0.6 | 1.4233 ± 0.0002
312.14 K, x1 = 0.3 | 1.4179 ± 0.0002
312.14 K, x1 = 0.4 | 1.4199 ± 0.0002
312.15 K, x1 = 0.798 | 1.4257 ± 0.0003
312.81 K, x1 = 0.699 | 1.4242 ± 0.0003
312.9 K, x1 = 0.497 | 1.4214 ± 0.0002
312.9 K, x1 = 0.6 | 1.4229 ± 0.0002
313.38 K, x1 = 0.891 | 1.4263 ± 0.0003
313.81 K, x1 = 0.798 | 1.4253 ± 0.0003
315.28 K, x1 = 0.798 | 1.4248 ± 0.0003
315.28 K, x1 = 0.891 | 1.4258 ± 0.0003
